Entries after “also recorded” stand apart in the source; their conditions may differ. Marks after values point to notes of the source that are not given here.
Experiment: Phase 1 crossover study: AZD5718 plasma pharmacokinetics
Type: in vivo, human
Details: for AUC(0-inf) / AUC(0-t) / half-life / Tmax / Cmax: human, plasma, oral; for AUC(0-inf): AZD5718 AUC0-inf; for AUC(0-t): AZD5718 AUC0-last; for half-life: AZD5718 t1/2 lambda z; for Tmax: AZD5718 tmax, median (range); for Cmax: AZD5718 Cmax
Protocol: The primary objective was to evaluate the pharmacokinetics of oral rosuvastatin when administered alone and in combination with oral AZD5718. […] Each participant received 5 single-dose oral study treatments (A-E), with a minimum washout period of 7 days between each treatment period. Participants were randomly assigned to treatments in the order A, B, C, D, E or B, A, C, D, E. Treatments were: […] […] Participants fasted for at least 10 hours before treatment and for at least 4 hours after treatment. Participants receiving treatment E consumed a high-fat breakfast 30 minutes before treatment. Water was permitted as desired except within 1 hour of administration. […] Doses were taken with 240 mL of water. […] At a minimum, each analytical run included a calibration curve, a matrix blank, a control zero sample (matrix blank containing internal standard), a reagent blank, and duplicate quality control samples at 3 concentrations within the calibration range. […] Both assessments were well within the acceptance criteria. […] The pharmacokinetic analysis set for rosuvastatin included all participants who received both rosuvastatin treatments. […] Statistical analyses were performed by […] using SAS version 9.4. Rosuvastatin pharmacokinetics were analyzed using a mixed-effects model, with log-transformed AUC, AUC0-last, and Cmax as the response variables; treatment sequence, period, and treatment as fixed effects; and participant nested within treatment sequence as a random effect. […] LS mean differences and 90%CIs for the effect of formulation or food for log-transformed variables were back transformed to geometric mean ratios and presented as percentages with 90% CIs.

[1] = 200 mg suspension, fasted, n = 10
[2] = 200 mg tablet plus rosuvastatin 10 mg, fasted, n = 12
[3] = 200 mg, arithmetic mean (SD), 200 mg suspension, fasted, n = 10
[4] = 200 mg, arithmetic mean (SD), 200 mg tablet, fasted, n = 10
[5] = 200 mg, arithmetic mean (SD), 200 mg tablet, fed, n = 12
[6] = 200 mg, geometric mean (%CV), 200 mg suspension, fasted, n = 10
[7] = 200 mg, geometric mean (%CV), 200 mg tablet, fasted, n = 10
[8] = 200 mg, geometric mean (%CV), 200 mg tablet, fed, n = 12
[9] = arithmetic mean (SD), 200 mg tablet plus rosuvastatin 10 mg, fasted, n = 12
[10] = geometric mean (%CV), 200 mg tablet plus rosuvastatin 10 mg, fasted, n = 12
[11] = male, 200 mg, geometric mean (%CV), 200 mg suspension, fasted, n = 12
[12] = male, 200 mg, geometric mean (%CV), 200 mg tablet, fasted, n = 12
[13] = male, 200 mg, geometric mean (%CV), 200 mg tablet, fed, n = 12
[14] = male, geometric mean (%CV), 200 mg tablet plus rosuvastatin 10 mg, fasted, n = 12
[15] = tablets after high-fat breakfast relative to fasting

Cc1cc(-c2ccc(C(=O)[C@@H]3CCCC[C@H]3C(=O)Nc3cnn4c3C(=O)NCC4)cc2)n[nH]1 [AZD5718]
AZD5718 CL/F, arithmetic mean (SD) [1]: 93.55 (20.40) ^a L/h | AZD5718 CL/F, geometric mean (%CV) [1]: 91.5 (22.2) ^a L/h | AZD5718 CL/F, arithmetic mean (SD) [2]: 127.6 (28.12) L/h | AZD5718 CL/F, geometric mean (%CV) [2]: 124.6 (22.6) L/h | AZD5718 Cmax, ratio of geometric LS means (200 mg tablet vs oral suspension, fasted, 90% CI 36%-57%): 45% | AZD5718 AUC0-inf (relative bioavailability), geometric LS mean ratio (200 mg tablet vs oral suspension, fasted, 90% CI 64%-80%): 72% | AZD5718 CL/F, arithmetic mean (SD) (200 mg tablet, fasted, n = 10): 128.1 (25.63) ^a L/h | AZD5718 CL/F, geometric mean (%CV) (200 mg tablet, fasted, n = 10): 126.0 (20.1) ^a L/h | AZD5718 AUC0-inf (relative bioavailability), geometric LS mean ratio (200 mg tablet, fed (high-fat breakfast) vs fasted, 90% CI 87%-106%): 96% | AZD5718 Cmax, geometric LS mean ratio (200 mg tablet, fed vs fasted, 90% CI 63%-95%): 77% | AZD5718 CL/F, arithmetic mean (SD) (200 mg tablet, fed, n = 12): 136.9 (25.53) L/h | AZD5718 CL/F, geometric mean (%CV) (200 mg tablet, fed, n = 12): 134.4 (20.4) L/h | Effect of rosuvastatin coadministration on AZD5718 pharmacokinetics (AZD5718 200 mg tablet plus rosuvastatin 10 mg vs tablet alone): unaffected; also recorded: not affected | Between-participant variability (CV) of AUC0-inf and AUC0-last (AZD5718 tablets): < 25% | AUC(0-inf) [3]: 5 µM·h | AUC(0-inf) [4]: 3.62 µM·h | AUC(0-inf) [5]: 3.4 µM·h | AUC(0-inf) [6]: 4.89 µM·h | AUC(0-inf) [7]: 3.56 µM·h | AUC(0-inf) [8]: 3.33 µM·h | AUC(0-t) (200 mg, arithmetic mean (SD), 200 mg suspension, fasted, n = 12): 4.75 µM·h | AUC(0-t) (200 mg, arithmetic mean (SD), 200 mg tablet, fasted, n = 12): 3.49 µM·h | AUC(0-t) [5]: 3.27 µM·h | half-life [3]: 13.6 h | half-life [4]: 14 h | half-life [5]: 13.7 h | half-life [6]: 13.2 h | half-life [7]: 13.2 h | half-life [8]: 13.5 h | Tmax (200 mg, 200 mg suspension, fasted, n = 12): 1 h | Tmax (200 mg, 200 mg tablet, fed, n = 12): 4 h | AUC(0-inf) [9]: 3.67 µM·h | AUC(0-inf) [10]: 3.59 µM·h | AUC(0-t) [9]: 3.55 µM·h | half-life [9]: 15 h | half-life [10]: 13.9 h | Tmax [2]: 2.01 h | Decrease in AZD5718 Cmax (immediate-release tablets relative to oral suspension): about 55% | AUC(0-t) [11]: 4.65 µM·h | AUC(0-t) [12]: 3.43 µM·h | AUC(0-t) [13]: 3.21 µM·h | Cmax (male, 200 mg, arithmetic mean (SD), 200 mg suspension, fasted, n = 12): 1250 nM | Cmax (male, 200 mg, arithmetic mean (SD), 200 mg tablet, fasted, n = 12): 565 nM | Cmax (male, 200 mg, arithmetic mean (SD), 200 mg tablet, fed, n = 12): 427 nM | Cmax [11]: 1170 nM | Cmax [12]: 530 nM | Cmax [13]: 409 nM | AUC(0-t) [14]: 3.46 µM·h | Cmax (male, arithmetic mean (SD), 200 mg tablet plus rosuvastatin 10 mg, fasted, n = 12): 567 nM | Cmax [14]: 545 nM | Decrease in AZD5718 Cmax [15]: about 23% | Delay in AZD5718 tmax [15]: about 1 hour
